Reference: patent publication EP2589383A1 (Max-Planck-Gesellschaft zur Förderung der Wissenschaften …, priority 2011, dated 2013)

Biological target: T1, FLAG-mTOR (Homo sapiens, UniProt P42345)
T1 construct: expressed in transfected cells; host or cells: HEK-293
Test: Co-immunoprecipitation of FLAG-mTOR and endogenous FKBPs in HEK-293 cells
Assay type: cell-based
Conditions: overexpressed mTOR, 25 nM, 30 minutes prior to lysis
Experimental: Next mammalian cells were analyzed for a rapamycin-mediated interaction of mTOR and FKBPs. Co-Immunoprecipitation experiments were performed. In detail, the mammalian expression vector pcDNA-3, containing a FLAG-tagged mTOR cDNA sequence, was introduced into HEK-293 cells by standard Lipofectamine transfection. After 48 h, cells were washed twice with TBS and lysed in lysis buffer (40 mM Hepes, pH 7.5; 120 mM NaCl; 1 mM EDTA; 10 mM pyrophosphate; 10 mM glycerophosphate; 0.5 mM orthovanadate; 50 mM NaF; 0.3% (w/v) CHAPS / 1% (v/v) Triton-100; 1% (v/v) protease inhibitor mix) by shaking at 1000 rpm at 4°C for 20 minutes. After 20 minutes of centrifugation at 14.000 rpm and 4°C, the supernatant was collected, and total protein was determined by Bradford Assay. […] Beads were pelleted and washed 4 times with lysis buffer. Finally, beads were directly boiled after addition of an equal amount of SDS sample buffer for 5 minutes. Extracts were subjected to SDS-PAGE and immunoblotting.

interaction of mTOR with endogenous FKBP12, FKBP51 and FKBP52 (co-precipitation): No interaction was observed
Structure (SMILES): C=CC[C@@H]1/C=C(\C)C[C@H](C)C[C@H](OC)[C@H]2O[C@@](O)(C(=O)C(=O)N3CCCC[C@H]3C(=O)O[C@H](/C(C)=C/[C@@H]3CC[C@@H](O)[C@H](OC)C3)[C@H](C)[C@@H](O)CC1=O)[C@H](C)C[C@@H]2OC [Tacrolimus]
